Measurements from patent US10370360B2, “Small-molecule inhibitors targeting discoidin domain receptor 1 and uses thereof” (priority 2014, dated 2019).
Read-outs that look alike come from different tables or passages of the source.

What was measured:
[1] = target: DDR1 (Homo sapiens (Human), UniProt Q08345); test: LanthaScreen Eu kinase activity assay, DDR1; format: biochemical; details: 100 nM ATP
[2] = target: DDR2 (Homo sapiens (Human), UniProt Q16832); test: LanthaScreen Eu kinase activity assay, DDR2; format: biochemical; details: 100 nM ATP
[3] = target: Bcr-Abl; test: FRET-based Z'-Lyte kinase assay, Abl; format: biochemical; details: 10 μM ATP; cells printed in μM
[4] = target: c-Kit (Homo sapiens (Human), UniProt P10721); test: FRET-based Z'-Lyte kinase assay, c-kit; format: biochemical; details: 300 μM ATP
[5] = test system: AsPC-1 cells; test: MTS viability assay, AsPC-1; format: cell-based; details: Homo sapiens
[6] = test system: PANC-1 cells; test: MTS viability assay, PANC-1; format: cell-based; details: Homo sapiens
[7] = test system: orthotopic AsPC-1 tumors; test: survival study, orthotopic AsPC-1 xenograft in NOD-SCID mice; format: in vivo, mouse
[8] = test system: KPC mice (PDA); test: survival study, KPC genetically engineered mouse model of PDA; format: in vivo
[9] = test system: human PDA cell lines; test: liquid colony forming assay; format: cell-based; details: concentration-dependent, 1.5-2 weeks
[10] = test system: human PDA cell lines; details: concentration-dependent, 30 hour
[11] = rats; Gao et al., 2013; cited from earlier work
[12] = target: Bcr-Abl (Homo sapiens, UniProt P00519); test: FRET-based Z'-Lyte kinase assay, Abl; format: biochemical; details: 10 μM ATP; cells printed in μM
Chain of Bcr-Abl (Homo sapiens, UniProt P00519) (P00519 whole entry): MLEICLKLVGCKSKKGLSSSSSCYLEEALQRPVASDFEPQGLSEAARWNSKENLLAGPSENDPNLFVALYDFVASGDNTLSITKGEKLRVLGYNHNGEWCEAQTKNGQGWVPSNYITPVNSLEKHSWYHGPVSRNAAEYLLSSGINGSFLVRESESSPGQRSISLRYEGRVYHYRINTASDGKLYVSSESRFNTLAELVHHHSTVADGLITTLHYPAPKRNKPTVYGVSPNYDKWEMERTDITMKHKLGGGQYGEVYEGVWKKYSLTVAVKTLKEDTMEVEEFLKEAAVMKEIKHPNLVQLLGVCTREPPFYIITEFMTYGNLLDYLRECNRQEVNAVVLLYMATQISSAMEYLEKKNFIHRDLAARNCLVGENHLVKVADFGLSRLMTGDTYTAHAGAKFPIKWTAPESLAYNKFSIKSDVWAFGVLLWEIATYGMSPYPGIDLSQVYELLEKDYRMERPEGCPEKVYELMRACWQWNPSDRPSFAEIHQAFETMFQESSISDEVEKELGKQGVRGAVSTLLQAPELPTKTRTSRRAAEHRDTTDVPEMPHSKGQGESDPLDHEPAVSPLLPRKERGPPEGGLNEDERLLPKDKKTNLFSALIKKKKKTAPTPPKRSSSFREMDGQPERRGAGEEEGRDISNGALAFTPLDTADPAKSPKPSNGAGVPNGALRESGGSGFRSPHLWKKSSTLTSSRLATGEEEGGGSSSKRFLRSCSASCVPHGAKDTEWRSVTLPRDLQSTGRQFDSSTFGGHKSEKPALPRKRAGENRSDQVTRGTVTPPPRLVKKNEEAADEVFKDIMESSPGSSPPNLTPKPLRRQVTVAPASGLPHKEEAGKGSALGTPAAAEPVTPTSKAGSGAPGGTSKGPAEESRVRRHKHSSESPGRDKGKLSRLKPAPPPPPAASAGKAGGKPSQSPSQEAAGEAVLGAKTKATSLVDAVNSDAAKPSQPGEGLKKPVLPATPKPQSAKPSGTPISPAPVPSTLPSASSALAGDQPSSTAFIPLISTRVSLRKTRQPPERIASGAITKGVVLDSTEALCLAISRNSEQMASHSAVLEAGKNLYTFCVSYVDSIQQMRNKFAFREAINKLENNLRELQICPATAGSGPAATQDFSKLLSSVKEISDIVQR

Chain of DDR2 (Q16832 22-855): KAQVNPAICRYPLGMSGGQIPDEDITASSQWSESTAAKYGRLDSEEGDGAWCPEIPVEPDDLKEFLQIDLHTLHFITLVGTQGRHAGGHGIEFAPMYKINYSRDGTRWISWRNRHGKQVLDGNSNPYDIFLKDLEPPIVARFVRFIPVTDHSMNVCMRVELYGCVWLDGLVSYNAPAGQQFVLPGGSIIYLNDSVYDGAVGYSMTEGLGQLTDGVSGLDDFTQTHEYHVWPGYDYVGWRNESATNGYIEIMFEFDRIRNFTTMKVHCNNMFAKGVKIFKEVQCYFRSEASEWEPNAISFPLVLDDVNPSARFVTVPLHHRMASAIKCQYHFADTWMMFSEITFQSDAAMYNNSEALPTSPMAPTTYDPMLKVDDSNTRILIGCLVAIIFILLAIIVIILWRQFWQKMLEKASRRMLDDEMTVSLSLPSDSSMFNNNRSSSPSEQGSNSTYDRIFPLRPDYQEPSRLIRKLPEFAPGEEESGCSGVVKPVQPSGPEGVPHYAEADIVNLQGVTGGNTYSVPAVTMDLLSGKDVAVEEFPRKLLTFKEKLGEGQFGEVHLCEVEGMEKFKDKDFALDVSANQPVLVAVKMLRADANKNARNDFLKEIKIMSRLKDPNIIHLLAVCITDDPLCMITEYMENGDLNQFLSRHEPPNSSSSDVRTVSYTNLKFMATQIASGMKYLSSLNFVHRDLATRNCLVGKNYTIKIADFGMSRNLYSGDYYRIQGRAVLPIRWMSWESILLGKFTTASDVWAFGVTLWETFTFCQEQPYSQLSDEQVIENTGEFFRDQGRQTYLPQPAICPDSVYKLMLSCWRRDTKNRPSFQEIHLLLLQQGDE
Chain of DDR1 (Q08345 19-913): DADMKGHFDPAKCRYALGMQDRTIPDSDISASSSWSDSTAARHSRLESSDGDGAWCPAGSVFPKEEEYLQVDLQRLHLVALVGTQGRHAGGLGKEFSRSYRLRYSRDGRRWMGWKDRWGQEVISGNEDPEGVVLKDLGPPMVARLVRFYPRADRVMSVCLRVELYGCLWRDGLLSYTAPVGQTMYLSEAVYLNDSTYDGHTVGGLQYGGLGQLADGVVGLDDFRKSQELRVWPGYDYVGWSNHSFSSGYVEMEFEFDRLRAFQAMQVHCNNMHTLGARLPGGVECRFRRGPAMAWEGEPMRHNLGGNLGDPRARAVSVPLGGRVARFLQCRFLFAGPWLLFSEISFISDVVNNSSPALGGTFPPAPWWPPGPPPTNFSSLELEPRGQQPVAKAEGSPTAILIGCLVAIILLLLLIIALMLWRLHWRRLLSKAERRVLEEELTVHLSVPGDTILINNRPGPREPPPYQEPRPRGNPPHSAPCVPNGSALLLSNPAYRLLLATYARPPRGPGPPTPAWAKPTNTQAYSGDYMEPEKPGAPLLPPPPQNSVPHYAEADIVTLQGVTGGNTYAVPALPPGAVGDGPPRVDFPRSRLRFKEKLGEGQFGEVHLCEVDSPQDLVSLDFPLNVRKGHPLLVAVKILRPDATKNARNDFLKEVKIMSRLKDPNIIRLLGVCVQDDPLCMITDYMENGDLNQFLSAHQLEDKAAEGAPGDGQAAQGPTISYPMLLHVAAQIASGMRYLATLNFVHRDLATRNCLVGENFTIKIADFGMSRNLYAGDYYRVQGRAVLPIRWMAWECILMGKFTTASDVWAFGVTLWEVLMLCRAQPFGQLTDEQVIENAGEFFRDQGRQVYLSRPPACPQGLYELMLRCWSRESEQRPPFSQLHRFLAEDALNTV
Chain of Bcr-Abl (P00519 whole entry): as the sequence (P00519 whole entry) above
Chain of c-Kit (P10721 26-976): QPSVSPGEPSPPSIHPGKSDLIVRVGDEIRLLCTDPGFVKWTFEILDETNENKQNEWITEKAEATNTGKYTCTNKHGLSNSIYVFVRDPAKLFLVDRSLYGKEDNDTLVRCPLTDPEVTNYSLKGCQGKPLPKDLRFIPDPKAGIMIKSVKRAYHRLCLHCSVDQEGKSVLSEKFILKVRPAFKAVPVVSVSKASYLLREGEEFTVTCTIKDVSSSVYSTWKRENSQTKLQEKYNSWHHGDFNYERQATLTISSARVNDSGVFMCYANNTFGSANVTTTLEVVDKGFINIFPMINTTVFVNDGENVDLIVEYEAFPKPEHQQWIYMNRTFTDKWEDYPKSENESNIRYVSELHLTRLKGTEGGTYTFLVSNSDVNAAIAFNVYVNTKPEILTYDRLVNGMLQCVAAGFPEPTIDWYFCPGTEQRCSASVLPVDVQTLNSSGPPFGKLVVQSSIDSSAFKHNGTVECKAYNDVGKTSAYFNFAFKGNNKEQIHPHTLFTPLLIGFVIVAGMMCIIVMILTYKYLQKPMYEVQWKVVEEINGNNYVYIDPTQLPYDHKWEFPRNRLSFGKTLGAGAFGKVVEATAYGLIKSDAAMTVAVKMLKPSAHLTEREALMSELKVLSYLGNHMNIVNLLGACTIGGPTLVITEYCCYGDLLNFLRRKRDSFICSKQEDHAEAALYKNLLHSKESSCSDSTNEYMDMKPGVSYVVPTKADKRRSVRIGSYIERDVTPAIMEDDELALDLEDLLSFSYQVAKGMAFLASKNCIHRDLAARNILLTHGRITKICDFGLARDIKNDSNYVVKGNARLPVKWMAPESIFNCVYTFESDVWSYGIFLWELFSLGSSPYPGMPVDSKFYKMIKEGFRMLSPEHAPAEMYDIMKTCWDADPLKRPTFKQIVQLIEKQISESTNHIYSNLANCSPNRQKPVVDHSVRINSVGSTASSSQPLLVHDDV

| Compound | IC50 [1] | IC50 [3] | IC50 [4] | IC50 ([2]; cells printed in μM) | further results |
| --- | --- | --- | --- | --- | --- |
| CC1CN(c2cncnc2)Cc2cc(C(=O)Nc3cc(CN4CCN(C5CCCCC5)CC4)cc(C(F)(F)F)c3)ccc21 (stereo not shown) [Example 33, N-(3-((4-cyclohexylpiperazin-1-yl)methyl)-5-(trifluoromethyl)phenyl)-4-methyl-2-(pyrimidin-5-yl)-1,2,3,4-tetrahydroisoquinoline-7-carboxamide] | 79.9 nM | > 10 µM | > 10000 nM | – | IC50 ([2]; cells without unit): 0.945 µM |
| CC1CN(c2cncnc2)Cc2cc(C(=O)Nc3cc(CN4CCCN(C)CC4)cc(C(F)(F)F)c3)ccc21 (stereo not shown) [Example 14, 4-methyl-N-(3-((4-methyl-1,4-diazepan-1-yl)methyl)-5-(trifluoromethyl)phenyl)-2-(pyrimidin-5-yl)-1,2,3,4-tetrahydroisoquinoline-7-carboxamide] | 25.6 nM | > 10 µM | > 10000 nM | – | IC50 ([2]; cells without unit): 0.604 µM |
| Nc1ccn([C@@H]2O[C@H](CO)[C@@H](O)C2(F)F)c(=O)n1 [Gemcitabine, gemcitabine] | – | – | – | – | IC50 ([5]; ASPC1, AsPC-1, collagen coating, single agent, read-out: Gemcitabine (nM) Avg IC50s Collagen): 2000 nM; IC50 ([5]; ASPC1, AsPC-1, plastic coating, single agent, read-out: Gemcitabine (nM) Avg IC50s Plastic): > 2000 nM; IC50 ([5]; ASPC1, read-out: 500 nM 7rh + Gem Avg IC50s Plastic, AsPC-1, plastic, fixed 500 nM 7rh with gemcitabine titration): ≤ 2 nM; IC50 ([6]; PANC-1, PANC-1, collagen coating, single agent, read-out: Gemcitabine (nM) Avg IC50s Collagen): 2000 nM; IC50 ([6]; PANC-1, PANC-1, plastic coating, single agent, read-out: Gemcitabine (nM) Avg IC50s Plastic): > 2000 nM; IC50 ([6]; PANC-1, read-out: 500 nM 7rh + Gem Avg IC50s Plastic, PANC-1, plastic, fixed 500 nM 7rh with gemcitabine titration): ≤ 2 nM |
| CCc1cc(CN2CCN(C)CC2)cc(NC(=O)c2ccc3c(c2)CN(c2cncnc2)CC3C)c1 (stereo not shown) [Example 15, N-(3-ethyl-5-((4-methylpiperazin-1-yl)methyl)phenyl)-4-methyl-2-(pyrimidin-5-yl)-1,2,3,4-tetrahydroisoquinoline-7-carboxamide] | 50.5 nM | > 10 µM | > 10000 nM | 1.4 µM | – |
| CC1CN(c2cncnc2)Cc2cc(C(=O)Nc3cc(CN4CCSCC4)cc(C(F)(F)F)c3)ccc21 (stereo not shown) [Example 35, 4-methyl-2-(pyrimidin-5-yl)-N-(3-(thiomorpholinomethyl)-5-(trifluoromethyl)phenyl)-1,2,3,4-tetrahydroisoquinoline-7-carboxamide] | 209 nM | > 10 µM | > 10000 nM | 3.7 µM | – |
| CCc1ccc(C(=O)Nc2cc(CN3CCN(C)CC3)cc(C(F)(F)F)c2)cc1C#Cc1cnc2ccnn2c1 [Example 7rh, 3-(2-(Pyrazolo[1,5-a]pyrimidin-6-yl)-ethynyl) 7rh benzamide] | – | – | – | – | primary tumor growth compared to vehicle ([7]; orthotopic AsPC-1, tumor weight vs survival days): reduced; median overall survival ([7]; orthotopic AsPC-1, therapy from day 27 post tumor cell injection, 7rh 25 mg/kg 3×/week oral): 57 days; median of survival ([8]; KPC mice enrolled at 4 months of age, 7rh 25 mg/kg 3×/week oral): 159 days; primary tumor growth compared to vehicle ([8]; KPC mice, tumor weight vs survival days): reduced; colony formation [9]: reduced; cell migration [10]: reduced; in vivo half-life [11]: ~12 h |
| CC1CN(c2cncnc2)Cc2cc(C(=O)Nc3cccc(C(F)(F)F)c3)ccc21 (stereo not shown) [Example 13, 4-methyl-2-(pyrimidin-5-yl)-N-(3-(trifluoromethyl)phenyl)-1,2,3,4-tetrahydroisoquinoline-7-carboxamide] | 191 nM | > 10 µM | > 10000 nM | 10 µM | – |

Second part, led by results:

| IC50 [1] | IC50 [3] | IC50 [4] | IC50 ([2]; cells printed in μM) | Compound | further results |
| --- | --- | --- | --- | --- | --- |
| 222 nM | > 10 µM | > 10000 nM | 2.3 µM | CC1CN(c2cncnc2)Cc2cc(C(=O)Nc3cc(CN4CCCC4)cc(C(F)(F)F)c3)ccc21 (stereo not shown) [Example 20, 4-methyl-2-(pyrimidin-5-yl)-N-(3-(pyrrolidin-1-ylmethyl)-5-(trifluoromethyl)phenyl)-1,2,3,4-tetrahydroisoquinoline-7-carboxamide] | – |
| 223 nM | > 10 µM | > 10000 nM | 4.5 µM | CN1CCN(Cc2cc(NC(=O)c3ccc4c(c3)CN(c3cncnc3)CC4(C)C)cc(C(F)(F)F)c2)CC1 [Example 7, 4,4-dimethyl-N-(3-((4-methylpiperazin-1-yl)methyl)-5-(trifluoromethyl)phenyl)-2-(pyrimidin-5-yl)-1,2,3,4-tetrahydroisoquinoline-7-carboxamide] | – |
| – | – | > 10000 nM | – | Cc1cn(-c2cc(NC(=O)c3ccc4c(c3)CN(c3cncnc3)CC4C)cc(C(F)(F)F)c2)cn1 (stereo not shown) [Example 26, 4-methyl-N-(3-(4-methyl-1H-imidazol-1-yl)-5-(trifluoromethyl)phenyl)-2-(pyrimidin-5-yl)-1,2,3,4-tetrahydroisoquinoline-7-carboxamide] | IC50 [12]: 7.2 µM |
| 166 nM | > 10 µM | > 10000 nM | 2.2 µM | CC1CN(c2cncnc2)Cc2cc(C(=O)Nc3cc(CN4CCCCC4)cc(C(F)(F)F)c3)ccc21 (stereo not shown) [Example 19, 4-methyl-N-(3-(piperidin-1-ylmethyl)-5-(trifluoromethyl)phenyl)-2-(pyrimidin-5-yl)-1,2,3,4-tetrahydroisoquinoline-7-carboxamide] | – |
| 544 nM | > 10 µM | > 10000 nM | 7.6 µM | CC1Cc2ccc(C(=O)Nc3cc(CN4CCN(C)CC4)cc(C(F)(F)F)c3)cc2CN1c1cncnc1 (stereo not shown) [Example 30, 3-methyl-N-(3-((4-methylpiperazin-1-yl)methyl)-5-(trifluoromethyl)phenyl)-2-(pyrimidin-5-yl)-1,2,3,4-tetrahydroisoquinoline-7-carboxamide] | – |
| 35.7 nM | 7.2 µM | > 10000 nM | – | CC(C)c1cc(CN2CCN(C)CC2)cc(NC(=O)c2ccc3c(c2)CN(c2cncnc2)CC3C)c1 (stereo not shown) [Example 16, N-(3-isopropyl-5-((4-methylpiperazin-1-yl)methyl)phenyl)-4-methyl-2-(pyrimidin-5-yl)-1,2,3,4-tetrahydroisoquinoline-7-carboxamide] | IC50 ([2]; cells without unit): 0.647 µM |
